{"source": "paper PMC10298275", "about": "“Antiproliferative Activity and Impact on Human Gut Microbiota of New O-Alkyl Derivatives of Naringenin and Their Oximes” (International Journal of Molecular Sciences, 2023)", "key": {"[1]": {"system": "Escherichia coli K12", "assay": "MBC assay", "assay_type": "cell-based", "settings": "E. coli K12", "procedure": "(§1) The minimum bactericidal concentration (MBC) was tested for all naringenin derivatives. First, 10 µL of medium was taken from the plate, on which the MIC was determined for the MIC value, the value below and the two values above. This volume was transferred to TSA or MC agar. After 18–24 h (depending on strain) incubation at 37 °C, colonies were counted. The concentration of test compounds at which no bacterial growth was observed was defined as the MBC value. Each experiment was repeated 3 times."}, "[2]": {"system": "Enterococcus faecalis ATCC 29212", "assay": "MBC assay", "assay_type": "cell-based", "settings": "E. faecalis ATCC 29212", "procedure": "as §1"}, "[3]": {"system": "Staphylococcus aureus ATCC 25923", "assay": "MBC assay", "assay_type": "cell-based", "settings": "S. aureus ATCC 25923", "procedure": "as §1"}, "[4]": {"system": "HT-29 cells", "assay": "RealTime-Glo Annexin V Apoptosis and Necrosis Assay", "assay_type": "cell-based, human", "procedure": "The process of apoptosis was determined using the RealTime-Glo Annexin V Apoptosis and Necrosis Assay (Promega) according to the manufacturer’s protocol. Briefly, 1 × 10^4 HT-29 cells were seeded into a single well of a 96-well plate. After overnight incubation, the cells were treated with 10, 25, 50 and 100 µg/mL of the investigated compounds and detection reagent for 24 h. As a negative control, untreated cells were used. The luminescence, fluorescence and OD525 signals were detected at each hour of the first 12 h of incubation. The end measurement was performed at the 24th hour of the experiment. All samples were prepared in triplicate, and then their means were calculated."}, "[5]": {"system": "3T3-L1 cells", "assay": "SRB assay, cytotoxicity", "assay_type": "cell-based, mouse", "settings": "3T3-L1, SRB, 24 h exposure, three independent repeats", "procedure": "(§2) The HT-29 cells (ATCC, Manassas, VA, USA) were cultured within α-MEM (IIET PAS, Wrocław, Poland) supplemented with 10% fetal bovine serum (Sigma, St. Louis, MO, USA), antimycotic (100 μg/mL penicillin, 100 μg/mL streptomycin and 0.25 μg/mL amphotericin) (Sigma) and 2 mM glutamine (Sigma). The 3T3-L1 cells (ATCC, Manassas, VA, USA) were cultivated using DMEM high-glucose medium (IIET PAS, Wrocław, Poland) supplemented as above. Both cell lines were cultured at 37 °C in an atmosphere of 5% CO2.\n(§3) The sulforhodamine B (SRB) assay was performed according to a previously published protocol. Briefly, 1 × 10^4 HT-29 or 5 × 10^3 3T3-L1 cells were seeded into 96-well plates. After attaching to the plate surface, the cells were incubated with 100, 75, 50, 25, 10 or 1 µg/mL of the investigated compounds for 24 h. After this time, proteins were precipitated with trichloroacetic acid and stained with SRB. The absorbance was measured at 560 nm using a GloMax Discover Microplate Reader (Promega, Madison, WI, USA)."}, "[6]": {"system": "HT-29 cells", "parameters": "method as in earlier work", "settings": "ref 29 (Kocyigit et al.); cited from earlier work"}, "[7]": {"system": "HT-29 cells", "assay": "SRB assay, cytotoxicity", "assay_type": "cell-based, human", "settings": "HT-29, SRB, 24 h exposure, three independent repeats", "procedure": "as §2, §3"}, "[8]": {"system": "HT-29 cells", "assay": "MTT assay, cell viability", "assay_type": "cell-based, human", "settings": "HT-29, MTT, 24 h", "procedure": "as §2\nFirst, 1 × 10^4 HT-29 cells or 5 × 10^3 3T3-L1 cells were seeded into a 96-well plate and incubated for one night. Then, cells were treated with different concentrations of the investigated compounds within 24 h. Afterwards, the medium was replaced with a fresh medium containing 0.5 mg/mL of 3-(4,5-dimethylthiazol-2-yl)-2,5-diphenyl-2H-tetrazolium bromide (MTT, Sigma) and incubated for 2 h at 37 °C. After removing the medium, the formazan salts were dissolved in dimethyl sulfoxide (DMSO, Sigma), and the absorbance of the solution was measured at 560 nm using a plate reader."}, "[9]": {"system": "Escherichia coli K12", "assay": "MIC, microdilution method", "assay_type": "cell-based", "settings": "E. coli K12, MHB, 18 h, 37 °C, tested 512 to 1 µg/mL", "procedure": "(§4) Non-pathogenic reference strains representing the intestinal microbiome were used for the studies: Escherichia coli K12, Staphylococcus aureus ATCC 25923 and Enterococcus faecalis ATCC 29212. All strains were obtained from the collection of the Department of Microbiology at the Medical University of Wrocław.\n(§5) The strains were received from the museum (−80 °C) and grown in tryptic soy broth (TSB, OXOID, Basingstoke, UK) under continuous shaking conditions (MaxQTM6000 incubator shaker, Thermo Scientific, Waltham, MA, USA) at 125 rpm at 37 °C. Then, they were moved to the growth media, namely tryptic soy agar (TSA, OXOID, Basingstoke, UK) and MacConkey agar (MC, Millipore, Darmstadt, Germany) for S. aureus or E. faecalis and E. coli, respectively.\n(§6) A fresh 18–24 h culture was used for each study. For this purpose, a culture with a density of 1.5 × 10^8 CFU/mL in Mueller–Hinton broth (MHB, OXOID, Basingstoke, UK) was prepared and used for further microdilution studies.\n(§7) The antimicrobial activity of the O-alkyl derivatives of naringenin and their oximes was tested in vitro using the microdilution method, showing the minimum inhibitory concentration (MIC), in accordance with the recommendations of the European Antimicrobial Susceptibility Testing Committee EUCAST [44]. MICs were determined in 96-well microdilution plates. The tests were carried out in MHB medium. The O-alkyl derivatives of naringenin and their oximes were tested in the concentration range of 512 to 1 µg/mL in a geometric process in MHB medium. The final concentration of the test strains in each test well was 5 × 10^5 CFU/mL. MICs were read after 18 h (for E. coli and S. aureus) and 24 h (for E. faecalis) incubation at 37 °C.\n(§8) A strain growth control (tested strain in medium), background control for tested compounds (naringenin derivatives in MHB), medium control (only pure MHB) and compound solvent control (DMSO at test compound concentration, strain and MHB) were set for each experiment. Each test was set up with three independent experiments, each as three separate replicates.\n(§9) The […], OD600, was measured in a plate reader (ASYS UVM340, BIOCHROM Ltd., Cambridge, UK). The background control of the tested compounds and the clean medium were included in the absorbance results."}, "[10]": {"system": "Enterococcus faecalis ATCC 29212", "assay": "MIC, microdilution method", "assay_type": "cell-based", "settings": "E. faecalis ATCC 29212, MHB, 24 h, 37 °C, tested 512 to 1 µg/mL", "procedure": "as §4, §5, §6, §7, §8, §9"}, "[11]": {"system": "Staphylococcus aureus ATCC 25923", "assay": "MIC, microdilution method", "assay_type": "cell-based", "settings": "S. aureus ATCC 25923, MHB, 18 h, 37 °C, tested 512 to 1 µg/mL", "procedure": "as §4, §5, §6, §7, §8, §9"}, "[12]": {"assay": "SRB assay, cytotoxicity", "assay_type": "cell-based, mouse", "settings": "mouse, 3T3-L1 cells; 3T3-L1, SRB, 24 h exposure, three independent repeats; read-out: Cytotoxicity (IC50 ± SD)", "procedure": "as §2, §3"}, "[13]": {"system": "caspase 3/7 in HT-29 cells", "assay": "Caspase-Glo 3/7 Assay", "assay_type": "cell-based, human", "settings": "HT-29, 50 µg/mL", "procedure": "The activity of two effector caspases 3 and 7 was analyzed using the Caspase-Glo 3/7 Assay (Promega) according to the recommendations of the manufacturer. The cells were seeded at a density of 1 × 10^4 per well for the test on a 96-well plate. Then, cells were incubated with A2, B2, A9, B9 and NG at a concentration of 50 µg/mL for 48 h. Half an hour before each measurement of caspase activity, an equal volume of Caspase-Glo 3/7 substrate solution was added to cells. The luminescence signals were detected using a GloMax Discover Microplate Reader at the 6th, 12th, 24th and 48th hours of the experiment. The reactions for each sample were repeated in triplicate and presented as the mean value."}, "[14]": {"assay": "SRB assay, cytotoxicity", "assay_type": "cell-based, human", "settings": "human, HT-29 cells; HT-29, SRB, 24 h exposure, three independent repeats; read-out: Cytotoxicity (IC50 ± SD)", "procedure": "as §2, §3"}}, "note": "“Also recorded” adds a separate entry of the source. Read-outs that look alike come from different tables or passages of the source."}
{"smiles": "O/N=C1\\CC(c2ccc(O)cc2)Oc2cc(O)cc(O)c21", "note": "(centres unmarked) [NGOX, naringenin oxime, reference compound]", "values": [{"measurement": "MBC", "setting": "[1]", "value": "> 512", "unit": "µg/mL"}, {"measurement": "MBC", "setting": "[2]", "value": "> 512", "unit": "µg/mL"}, {"measurement": "MBC", "setting": "[3]", "value": "> 512", "unit": "µg/mL"}, {"measurement": "annexin V luminescence and necrosis fluorescence signals versus untreated cells", "setting": "[4]; HT-29, during 12 h incubation, applied concentrations 10-100 µg/mL", "value": "both signals were similar to those for untreated cells"}, {"measurement": "Cytotoxicity (IC50 ± SD)", "setting": "[5]", "value": "29.18 ± 2.00", "unit": "µg/mL"}, {"measurement": "IC50", "setting": "[6]", "value": 175, "unit": "µg/mL"}, {"measurement": "Cytotoxicity (IC50 ± SD)", "setting": "[7]", "value": ">100", "unit": "µg/mL"}, {"measurement": "reduction in cell viability", "setting": "[8]; 100 µg/mL", "value": "more than 50%"}, {"measurement": "MIC", "setting": "[9]", "value": 512, "unit": "µg/mL"}, {"measurement": "MIC", "setting": "[10]", "value": 512, "unit": "µg/mL"}, {"measurement": "MIC", "setting": "[11]", "value": "> 512", "unit": "µg/mL"}]}
{"smiles": "CCCCCCCCCCCOc1cc(O)c2c(c1)O[C@H](c1ccc(O)cc1)CC2=NO", "note": "[B9, 7-O-Undecylnaringenin oxime]", "values": [{"measurement": "melting point", "value": "171 to 173", "unit": "°C"}, {"measurement": "MBC", "setting": "[1]; Escherichia coli, read-out: MBC", "value": "> 512", "unit": "µg/mL"}, {"measurement": "MBC", "setting": "[2]; Enterococcus faecalis, ATCC29212, read-out: MBC", "value": "> 512", "unit": "µg/mL"}, {"measurement": "MBC", "setting": "[3]; Staphylococcus aureus, ATCC25923, read-out: MBC", "value": "> 512", "unit": "µg/mL"}, {"measurement": "onset of loss of membrane integrity (fluorescence signal), time shift with respect to luminescence", "setting": "[4]; HT-29, 50 µg/mL", "value": "more than 5 h"}, {"measurement": "phosphatidylserine exposure (luminescent signal) on the outer side of the cell membrane", "setting": "[4]; HT-29, 50 µg/mL", "value": "significantly increased; also recorded: increased the level of phosphatidylserine"}, {"measurement": "IC50 at 24 h", "setting": "[12]", "value": "6.74 ± 0.84", "unit": "µg/mL"}, {"measurement": "time of caspase 3/7 activation", "setting": "[13]", "value": "≤ 12", "unit": "h"}, {"measurement": "caspase 3/7 activation", "setting": "[13]; measured at 6, 12, 24 and 48 h", "value": "rapid activation of caspase 3/7"}, {"measurement": "IC50 at 24 h", "setting": "[14]", "value": "11.4 ± 1.17", "unit": "µg/mL"}, {"measurement": "reduction in cell viability", "setting": "[8]; 10 µg/mL dose", "value": "more than 50%"}, {"measurement": "MIC", "setting": "[9]; Escherichia coli, read-out: MIC", "value": "> 512", "unit": "µg/mL"}, {"measurement": "MIC", "setting": "[10]; Enterococcus faecalis, ATCC29212, read-out: MIC", "value": 256, "unit": "µg/mL"}, {"measurement": "MIC", "setting": "[11]", "value": ">512 (>512) µg/mL"}, {"measurement": "MIC", "setting": "[11]; Staphylococcus aureus, ATCC25923, read-out: MIC", "value": "> 512", "unit": "µg/mL"}]}
